Patent US20050038058A1, “Novel compounds and methods for therapy” (Institute of Organic Chemistry and Biochemistry, priority 2001, published 2005)
Converted amounts (≈) assume the structure as drawn.

Columns and labels:
HIV-1(IIIB) = assay: HIV-1(IIIB)-induced cytopathicity in CEM cell cultures; assay type: cell-based; details: for EC50: Human immunodeficiency virus 1, CCRF-CEM, read-out: EC50 HIV-1 (CEM)
Excerpt: Viruses. The origins of MSV, HIV type 1 (HIV-1) (strain IIIB and Ba-L), HIV-2 (strain ROD) and FIV (strain Petaluma) have been described previously (Balzarini et al., AIDS 5: 21-28, 1991; De Clercq et al., Proc. Soc. Exp. Biol. Med. 137:590-594, 1971; Egberink et al., Proc. Natl. Acad. Sci. 87:3087-3091, 1990; Hartmann et al., Antiviral Chem. Chemother. 5:13-19, 1994; Popovic et al., Science 224:497-500, 1984). HIV-1(IIIB) and HIV-2(ROD) stocks were obtained from supernatants of virus-infected MT-4 cell cultures. HIV-1BaL was expanded in human primary M/M, whose supernatants were collected, filtered and stored at −80° C. before use. Characteristics of viral stocks used for this study were 2.1×10^8 HIV-RNA genomes/ml (corresponding to 35 ng of p24 antigen) and 5,000 tissue culture infectious doses 50% per ml (TCID50/ml) as assessed by virus titration in other primary M/M cultures. The isolation and characterization of the clinical HIV-1 isolates L1S, L6S and L6S/PMEA has been reported (Thormar et al., Proc. Natl. Acad. Sci. USA 93:3283-3287, 1995; Van Laethem et al., AIDS 15:553-561, 2001). […] HIV-1/L6S/PMEA is the clinical isolate HIV-1/L6S that has been isolated after culturing the virus for 11 passages in the presence of increasing concentrations of PMEA (adefovir).
In vitro antiviral assays. The activity against HIV-1- and HIV-2-induced cytopathicity was examined in MT-4 cell cultures at day 5 post infection and based on the determination of cell viability by trypan blue dye staining or in CEM cell cultures at day 4 to 5 post infection and based on the microscopical examination of virus-induced giant cell formation. HIV-1 and HIV-2 were added at 100 CCID50 to the cell cultures.

[1] = Inhibition of CEM cell growth (cytostatic activity); assay type: cell-based; details: human, CEM cells, 50% cytostatic concentration, CEM cell proliferation; Table 1; read-out: CC50 (CEM)
Procedure: (§1) Cytostatic and antimetabolic effect of acyclic nucleoside phosphonates in vitro. The assays to examine the inhibition of CEM cell growth by the test compounds have been described previously (Balzarini et al., AIDS 5:21-28, 1991). The 50% cytostatic concentration (CC50) was defined as the concentration of compound that reduced the number of living cells by 50% . To measure MT-4 cell toxicity of the test compounds, 5×10^4 MT-4 cells were incubated in the wells of 96-well microplates in the presence or absence of different concentrations of the test compounds for 5 days at 37° C. The CC50 was then calculated from the number of living cells counted under a microscope by the trypan blue exclusion method.

HSV-1 (KOS) = assay: Antiviral activity, HSV-1 (KOS), Table 1a; assay type: cell-based; details: Human alphaherpesvirus 1
HSV-2 (G) = assay: Antiviral activity, HSV-2 (G), Table 1a; assay type: cell-based; details: Human alphaherpesvirus 2
CMV AD-169 = assay: Antiviral activity, CMV AD-169, Table 1a; assay type: cell-based; details: Human betaherpesvirus 5, AD169
CMV Davis = assay: Antiviral activity, CMV Davis, Table 1a; assay type: cell-based; details: Human betaherpesvirus 5
VZV TK + OKA = assay: Antiviral activity, VZV TK+ OKA, Table 1a; assay type: cell-based; details: Human alphaherpesvirus 3, read-out: Antiviral Activity EC50 VZV TK + OKA
VZV TK + YS = assay: Antiviral activity, VZV TK+ YS, Table 1a; assay type: cell-based; details: Human alphaherpesvirus 3
VZV TK − 07/1 = assay: Antiviral activity, VZV TK- 07/1, Table 1a; assay type: cell-based; details: Human alphaherpesvirus 3, read-out: Antiviral Activity EC50 VZV TK − 07/1
VZV TK − YS/R = assay: Antiviral activity, VZV TK- YS/R, Table 1a; assay type: cell-based; details: Human alphaherpesvirus 3, read-out: Antiviral Activity EC50 VZV TK − YS/R
MSV = assay: Antiviral activity, MSV, Table 1a; assay type: cell-based
HIV-2 = assay: Antiviral activity, HIV-2, Table 1a; assay type: cell-based; details: Human immunodeficiency virus 2
HIV-1 = assay: microbe, parasite or virus in culture; details: Human immunodeficiency virus 1, read-out: Antiviral Activity EC50 HIV-1
HSV-1 TK- VMW 1837 = assay: Antiviral activity, HSV-1 TK- VMW 1837, Table 1a; assay type: cell-based; details: Human alphaherpesvirus 1, read-out: Antiviral Activity EC50 HSV-1 TK- VMW 1837
CEM cells = assay: Inhibition of CEM cell growth (cytostatic activity); assay type: cell-based; details: 50% cytostatic concentration, CEM cell proliferation; Table 1
Procedure: as §1

[2] = HIV-1(IIIB)-induced cytopathicity in CEM cell cultures, Table 1

Structure (SMILES)	Antiretroviral (anti-HIV-1) activity in CEM cell cultures, in words (HIV-1(IIIB))	EC50 (HIV-1(IIIB); [2]) [µg/mL]	CC50 [1] [µg/mL]	EC50 (HSV-1 (KOS)) [µg/mL]	EC50 (HSV-2 (G)) [µg/mL]	EC50 (CMV AD-169) [µg/mL]	EC50 (CMV Davis) [µg/mL]	EC50 (VZV TK + OKA) [µg/mL]	EC50 (VZV TK + YS) [µg/mL]	EC50 (VZV TK − 07/1) [µg/mL]	EC50 (VZV TK − YS/R) [µg/mL]	EC50 (MSV) [µg/mL]	EC50 (HIV-2) [µg/mL]	EC50 (HIV-1) [µg/mL]	EC50 (HSV-1 TK- VMW 1837) [µg/mL]	other results
CN(C)c1cc(OCCOCP(=O)(O)O)nc(N)n1 [Compound 6, 2-amino-4-dimethylamino-6-[2-(phosphonomethoxy)-ethoxy]pyrimidine]	complete annihilation of the antiretroviral activity	> 100	> 100	–	–	–	–	–	–	–	–	–	–	–	–	–
Nc1nc(NC2CC2)cc(OCCOCP(=O)(O)O)n1 [Compound H-3435]	–	–	–	240 (≈ 789 µM)	> 80	> 50	> 50	> 20	> 50	> 50	> 50	> 40	> 100	> 100	–	–
Nc1cc(OCCOCP(=O)(O)O)nc(N)n1 [Compound H-3404]	–	–	–	6.5 (≈ 24.6 µM)	24 (≈ 90.8 µM)	> 50	> 50	1.2	1.1	2.5 (≈ 9.46 µM)	1.6 (≈ 6.06 µM)	0.035 ± 0.002 (≈ 0.132 µM)	0.43 ± 0.32 (≈ 1.63 µM)	0.8 (≈ 3.03 µM)	9.6 (≈ 36.3 µM)	–
Nc1nc2c(ncn2CCOCP(=O)(O)O)c(=O)[nH]1 [PMEG, reference compound]	–	–	–	–	–	–	–	–	–	–	–	–	–	–	–	EC50 as such (HIV-1(IIIB); HIV-1 (IIIB) in CEM, no addition, Table 3): >0.05 µg/mL; EC50 upon addition of Ade (100 μM) (HIV-1(IIIB); HIV-1 (IIIB) in CEM, Ade 100 μM): >0.05 µg/mL; EC50 upon addition of Ado (400 μM) (HIV-1(IIIB); HIV-1 (IIIB) in CEM, Ado 400 μM): >0.05 µg/mL; EC50 upon addition of Guo (10 μM) (HIV-1(IIIB); HIV-1 (IIIB) in CEM, Guo 10 μM): >0.05 µg/mL; EC50 upon addition of dCyd (1 mM) (HIV-1(IIIB); HIV-1 (IIIB) in CEM, dCyd 1 mM): >0.25 µg/mL; EC50 upon addition of dThd (10 μM) (HIV-1(IIIB); HIV-1 (IIIB) in CEM, dThd 10 μM): >0.25 µg/mL
Nc1cc(OCCOCP(=O)(O)O)ncn1 [Compound H-3418]	–	–	–	> 16	> 16	> 50	> 50	> 50	> 50	> 50	> 50	12.6 ± 7.6 (≈ 50.6 µM)	> 100	> 100	> 16	–
Nc1nc(O)cc(SCCOCP(=O)(O)O)n1 [Compound 5, 2-amino-4-hydroxy-6-{[2-(phosphono-methoxy)ethyl]sulfanyl}pyrimidine]	completely inactive	> 100	> 100	–	–	–	–	–	–	–	–	–	–	–	–	–
Nc1cc(OCCOCP(=O)(O)O)ncn1 [Compound 3, 4-amino-6-[2-(phosphonomethoxy)ethoxy]pyrimidine]	complete annihilation of the antiretroviral activity	> 100	> 100	–	–	–	–	–	–	–	–	–	–	–	–	–
Cc1cc(OCCOCP(=O)(O)O)nc(N)n1 [Compound 9, 2-amino-4-methyl-6-[2-(phosphonomethoxy)ethoxy]pyrimidine]	complete annihilation of the antiretroviral activity	> 100	> 100	–	–	–	–	–	–	–	–	–	–	–	–	–
CN(C)c1cc(OCCOCP(=O)(O)O)nc(N)n1 [Compound H-3427]	–	–	–	> 400	> 400	> 50	> 50	> 50	> 50	> 50	> 50	139 ± 11 (≈ 476 µM)	> 100	> 100	> 400	–
Cc1cc(OCCOCP(=O)(O)O)nc(N)n1 [Compound H-3453]	–	–	–	> 400	> 400	> 50	> 50	> 50	> 50	> 50	> 50	89.4 ± 37.6 (≈ 340 µM)	> 100	> 100	> 400	–
Nc1nc(OCCOCP(=O)(O)O)cc(=O)n1CCOCP(=O)(O)O [Compound H-3445]	–	–	–	> 400	> 400	> 50	> 50	> 50	> 50	> 50	> 50	107 ± 10 (≈ 265 µM)	> 100	> 100	> 400	–
CSc1nc(N)cc(OCCOCP(=O)(O)O)n1 [Compound 8, 4-amino-2-methylsulfanyl-6-[2-(phosphonomethoxy)ethoxy]pyrimidine]	complete annihilation of the antiretroviral activity	> 100	> 100	–	–	–	–	–	–	–	–	–	–	–	–	–
Nc1nc(O)cc(OCCOCP(=O)(O)O)n1 [Compound H-3574]	–	–	–	9.6 (≈ 36.2 µM)	9.6 (≈ 36.2 µM)	14 (≈ 52.8 µM)	16 (≈ 60.3 µM)	1.1	0.9	–	0.6 (≈ 2.26 µM)	0.08 (≈ 0.302 µM)	–	> 0.8	–	–
Nc1nc(OCCOCP(=O)(O)O)cc(OCCOCP(=O)(O)O)n1 [Compound H-3444]	–	–	–	240 (≈ 595 µM)	> 400	> 50	> 50	> 50	> 50	> 50	> 50	4.26 ± 0.75 (≈ 10.6 µM)	80 ± 34.6 (≈ 198 µM)	56.7 ± 37.9 (≈ 141 µM)	–	–
Nc1nc(NC2CC2)cc(OCCOCP(=O)(O)O)n1 [Compound 7, 2-amino-4-cyclopropylamino-6-[2-(phosphonomethoxy)ethoxy]pyrimi-dine]	complete annihilation of the antiretroviral activity	–	–	–	–	–	–	–	–	–	–	–	–	–	–	EC50 HIV-1 (CEM) (HIV-1(IIIB); [2]): >100 µg/mL; CC50 (CEM) (CEM cells): >100 µg/mL
Nc1cc(SCCOCP(=O)(O)O)nc(N)n1 [Compound H-3408]	–	–	–	29 (≈ 103 µM)	≥ 80	> 50	> 50	7.5	7	20 (≈ 71.4 µM)	15 (≈ 53.5 µM)	1.7 (≈ 6.07 µM)	3 ± 1.4 (≈ 10.7 µM)	5.5 ± 2.1 (≈ 19.6 µM)	48 (≈ 171 µM)	–
